Source: patent US20140080903A1, “APPLICATION OF ALPHA-MANGOSTIN IN PREPARATION OF MEDICAMENTS FOR ALZHEIMER'S DISEASE” (BOMAI LIMITED, priority 2011, published 2014)
Read-outs that look alike come from different tables or passages of the source.

Experiments:
Aβ = molecular target: T1, Aβ (Homo sapiens, UniProt P05067); test: Thioflavin-T fluorescence kinetics of Aβ aggregation; format: biochemical; conditions: inhibitor:Aβ 1:1, 37° C.; for incubation time at which Aβ enters into accumulation: Aβ itself 4 hours
T1 construct: purchased Sigma-Aldrich Corporation (China)
T1 sequence (P05067 672-711 limits assumed): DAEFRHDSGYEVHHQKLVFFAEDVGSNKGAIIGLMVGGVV
Description: Resveratrol, Curcumin and Propidium Iodide are the reported inhibitors on Aβ aggregation.
1 mg Aβ was dissolved in 500 μL HFIP, and put at room temperature for 120 minutes with intermittent shaking Then HFIP was dried by high pure nitrogen blowing and 100 μL DMSO was added to prepare an Aβ stock of 2.3 mM, which was stored at −20° C. DMSO was employed to dilute Aβ stock and 2 μL diluted solution was added to 16 μL PBS (0.215M, pH 8.0), which made a solution of Aβ at […], to which 2 μL α-Mangostin (25 μM) or other inhibitors, and blank solvent was added. Followed with incubation for 30 minutes, the mixture was added 80 μL Thioflavin-T(10 μM)/Glycine-NaOH (50 mM, pH8.5) and transferred to microplate for fluorescence intensity measurement. The parameters for measurement was set up as follow: instrument temperature of 37° C., shaking frequency of 240 rpm, radius of […], excitation wavelength of 446 nm, emission wavelength of 485 nm, bandwidth of 5 nm, and detection frequent of every 30 minute. Fluorescence intensity was recorded and statistically analyzed.

SAM-P8 mice = test: Morris water maze test in SAM-P8 mice; format: in vivo; conditions: for distance: mid-dose group
Description: Female SAM-P8 mice of 8-month old were employed as the model animal in the invention. All of the mice experimental procedures strictly followed the Guide for the Care and Use of Laboratory Animals as adopted and promulgated by the National Institutes of Health, USA, including sterile rearing environment, temperature controlled between 23° C. and 25° C., humidity controlled at 55±5%, and an interval of twelve hours light.
The concentration and dose of α-Mangostin applied in the experiment were adjusted according to the different animal models. In molecular experiments, α-Mangostin was employed to calibrate the concentration of Aβ, prepared with the unit of molar concentration, and compared with the known Aβ aggregation inhibitor. In cellular experiments, α-Mangostin was also prepared with the unit of molar concentration, and provided in screening from the concentration of 50 pmol/L to 500nmol/L. In animal experiments, following the established practice, α-Mangostin was prepared with the unit of weight/animal weight, provided dosage range across three orders of magnitude of low dose (1 μg/kg), mid dose (10 μg/kg), high dose (100 μg/kg), and administrated orally (O.P., Solid granules).
SAM-P8 mice were weight and divided into five groups randomly, including the model group, low-dose (1 μg/kg) , mid-dose (10 μg/kg) , high-dose ([…]) groups and positive control group treated with resveratrol (10 mg/kg). SAM-R1 mice were used as normal control. Reagents were mixed in food and applied to mice from the 3rd day after grouping (enter 6 months age) to the end of the test. Normal control group and model group were administrated with the same amount of food.
Morris water maze test was carried out when SAM-P8 mice entered the age of 8 months. Water temperature in the experiment was controlled at 22±0.5° C. Mice were put into water with their faces towards the wall and backs towards water. The computer started automatically to record the trace and time (escape latency) of mice seeking the platform within 100 seconds. […] The tests were carried out twice every day, with an interval of 6 hours, and continued for 3 days. After place navigation test, the platform was removed. Mice were placed into water at a certain place of entry. The first time those mice reached the platform and the times that mice across the platform were recorded.

Aβ oligomer = molecular target: T2, Aβ oligomer (Homo sapiens, UniProt P05067); test: ELISA determination of Aβ oligomer (6E10/A11); format: biochemical
T2 construct: purchased Sigma-Aldrich Corporation (China)
T2 sequence (P05067 672-711 limits assumed): as above
Description: 1 mg Aβ was dissolved in 500 μL HFIP at room temperature, of which 100 μL was transferred into a clean centrifuge tube (1.5 mL), where 900 μL sterile deionized water was added. Followed with centrifugation, the supernatant was moved to another clean centrifuge tube (1.5 mL) and HFIP was dried with high pure nitrogen blowing. Then the solution was stirred at 500 rpm for 48 hours at 22° C., using a micro stir bar, to get the solution of Aβ oligomer (1 μM). In inhibition experiment, α-Mangostin was added into the Aβ oligomer solution to obtain the final concentrations of 5 μM, 2 μM, 1 μM, 0.5 μM and 0.2 μM, respectively, and followed with another 12 hours stirring at 500 rpm and 22° C.α-Mangostin can also be added before stirring with Aβ oligomer for 12 hours.
The incubated solution was applied into the 96-well microplate coated with 100 μL monoclonal anti-Aβ antibody (6E10). After incubation for 1 hour at 37° C., the wells were washed 3 times with washing buffer and 100 μL Oligomer-specific antibody (A11) was applied. After 5 times washing, 100 μL HRP-conjugated Goat anti-Rabbit IgG was applied. After another 5 times washing and 15 minutes colour developing, the optical density was recorded and statistically analyzed with plate reader.

primary neuronal cells = test: high content assay of neuroprotective effect against Aβ oligomer; format: cell-based, SD rat; conditions: 50 nM α-Mangostin, 1 μM Aβ oligomer
Description: Mammalian neurons in the experiment were prepared from embryonic day 15 SD rat embryos. A medium specific for neurons was employed, including neurobasal, 2% B27 and 1% glutamine that were all commercial and used following the instructions of the manufacturer.
Embryonic day 15 SD rats are etherized and embryos were collected to a sterile dish with an anatomic buffer. Heads of the embryos were cut to a precooling dish with an anatomic buffer. A pair of straight forceps were inserted through eyes to fix the head, and another pincett was inserted along the head sagittal suture. The mening and skull were torn from front to back and to collect the brain. The hippocampus was peeled to the anatomic buffer in a precooling dish. The hippocampus was dissected by scissors disinfected with 75% alcohol. The minced tissues were collected into a marked 15 ml centrifuge tube and let them naturally precipitate to the bottom of the tube. The supernatant was discarded, and 2 mL 0.05% Trypsin was added. The tube was flipped several times and let it incubate for 5 minutes at 37° C. (shake evenly every two minutes). […]
The live cell dye stock in CELLOMICS ® Multiparameter Cytotoxicity 2 Kit was diluted to its working concentration. […] The fluorescence intensity was measured with high content plate reader and analyzed by the software of Cell Health Profiling Bio Application.

Histamine H1-receptor = Histamine H1-receptor (Homo sapiens, UniProt P35367); conditions: generally; cited from earlier work
Chain of Histamine H1-receptor (P35367 whole entry, species assumed): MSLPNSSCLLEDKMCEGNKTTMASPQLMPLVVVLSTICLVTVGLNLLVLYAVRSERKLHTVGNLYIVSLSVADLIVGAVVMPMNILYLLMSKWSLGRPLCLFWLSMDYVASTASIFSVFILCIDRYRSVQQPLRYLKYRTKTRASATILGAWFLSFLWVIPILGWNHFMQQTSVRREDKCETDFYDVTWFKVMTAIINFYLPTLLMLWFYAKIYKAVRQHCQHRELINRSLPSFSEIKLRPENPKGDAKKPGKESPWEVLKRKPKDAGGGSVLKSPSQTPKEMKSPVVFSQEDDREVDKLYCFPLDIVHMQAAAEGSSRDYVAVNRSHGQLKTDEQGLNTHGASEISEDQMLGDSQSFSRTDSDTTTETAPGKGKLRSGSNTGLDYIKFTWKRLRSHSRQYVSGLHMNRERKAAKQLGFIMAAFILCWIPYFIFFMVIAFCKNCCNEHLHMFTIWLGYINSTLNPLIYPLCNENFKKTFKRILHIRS

[1] = 5 μM α-Mangostin, mole ratio to Aβ oligomer 5:1

SMILES: COc1cc(/C=C/C(=O)CC(=O)/C=C/c2ccc(O)c(OC)c2)ccc1O [curcumin]
- incubation time at which Aβ enters into plateau (Aβ): 15 h

SMILES: CC[N+](C)(CC)CCC[n+]1c(-c2ccccc2)c2cc(N)ccc2c2ccc(N)cc21.[I-].[I-] [propidium iodide]
- incubation time at which Aβ enters into plateau (Aβ): 10 h
- maximum fluorescence intensity compared with Aβ incubated itself (Aβ; within 24 hours): 10%
- incubation time at which Aβ enters into accumulation (Aβ): 6 h

SMILES: Oc1ccc(C=Cc2cc(O)cc(O)c2)cc1 [resveratrol, reference compound]
- incubation time at which Aβ enters into plateau (Aβ): 15 h
- escape latency and distance compared with model group (SAM-P8 mice; from day 3, resveratrol 10 mg/kg positive control): notably decreased

SMILES: COc1c(O)cc2oc3cc(O)c(CC=C(C)C)c(O)c3c(=O)c2c1CC=C(C)C [α-Mangostin]
- formation of Aβ oligomer inhibited to (Aβ oligomer; [1]): 14.15±2.86%
- formed Aβ oligomer disaggregated to (Aβ oligomer; [1]): 39.58±3.25%
- IC50 (Aβ oligomer; read-out: IC50 of disaggregation of formed Aβ oligomer): 1590 ± 820 nM
- IC50 (Aβ oligomer; read-out: IC50 of inhibition on Aβ oligomer formation): 1090 ± 540 nM
- inhibition of Aβ aggregation (Aβ; within 24 hours): almost completely inhibited
- incubation time at which Aβ enters into accumulation (Aβ): no accumulation phase appeared within 24 hours
- mitochondrial membrane potential (primary neuronal cells; model 70.25±6.97%): 105.25±5.84%
- cell membrane permeability of neuronal cells (primary neuronal cells; model 173.75±6.82%): 107.75±9.39%
- working concentration as Histamine H1-receptor antagonist (Histamine H1-receptor): higher than 10^−6 mol/L
- escape latency (SAM-P8 mice; day 2, mid-dose group 10 m/kg, oral in food, model 72.17±10.09 s): 46.16 ± 5.51 s
- escape latency (SAM-P8 mice; from day 3, first value, mid-dose group 10 μg/kg, model 55.66±5.51 s): 40.02 ± 4.16 s
- distance (SAM-P8 mice; from day 3, first value, model 773.06±65.54): 438.78±46.02 cm
- escape latency (SAM-P8 mice; from day 3, second value, mid-dose group 10 μg/kg, model 39.93±4.12 s): 19.05 ± 3.27 s
- distance (SAM-P8 mice; from day 3, second value, model 543.13±56.72): 223.15±31.29 cm
